These molecules were tested on LpxC enzyme (assay: LpxC enzyme assay (RapidFire high-throughput mass spectrometry)). Conditions: concentration 0.10 (unit not given).
Assay type: biochemical
Experimental: The standard LpxC assay consists of 0.2 nM LpxC enzyme, 1.0 μM UDP-3-O—(R-3-hydroxymyristoyl)-N-acetylglucosamine, and test compound, in assay buffer and 2% DMSO. Assay buffer is comprised of 25 mM HEPES, pH 7.3, 150 mM NaCl, 2.0 mM DTT, and 0.01% BSA. The enzyme reaction is carried out in a 96-well assay plate, in a final volume of 102 μL. Solutions of test compounds are prepared in 100% DMSO. Reaction additions, in order, are (1) 2.0 μL compound solution, (2) 80 μL of assay buffer, (3) 10 μL of 10 μM UDP-3-O—(R-3-hydroxymyristoyl)-N-acetylglucosamine (in assay buffer) and, (4) 10 μL of LpxC enzyme (20 nM in assay buffer) to initiate the reaction. In positive control reactions, addition (1) has 2.0 μL of 100% DMSO (without compound); these reactions are used as the total signal (TSB) value. Reactions are incubated at room temperature for 60 minutes when 10 μL of 1 N HCl is added to stop the reaction. The plate is shaken by hand for 10 seconds to ensure complete quenching. Assay plates are sealed with foil tape, and stored at −80° C. for 24-48 hr prior to analysis.
The concentrations of substrate and product in the reaction mixtures are determined with BioTrove's proprietary RapidFire™ high-throughput mass spectrometry (HTMS). Assay mixtures are partially purified with reverse phase chromatography, where they are washed with water containing 5 mM ammonium formate and eluted onto the mass spectrometer in 80% acetonitrile, 20% water, and 5 mM ammonium formate. The mass spectrometry peak areas of the substrate and product are measured to determine the concentration of these analytes. The assay signal is the percentage of substrate that is converted to product. Percent inhibition, % I, in test samples is determined from the following equation: […]
With `CCC(C)c1ccc(NC(=O)[C@H](O)[C@@H](O)C(=O)N(C)C)cc1` (some centres unmarked) [Compound 50] the “LpxC enzyme assay rating (% inhibition at indicated concentrations)” value was “C (less than 10% inhibition)”.
In the case of `CN(C)C(=O)[C@H](O)[C@@H](O)C(=O)N1CCC(c2ccc(C(F)(F)F)cc2)CC1` [Compound 51], the “LpxC enzyme assay rating (% inhibition at indicated concentrations)” value is reported as “B (10-30% inhibition)”.
With `CN(C)C(=O)[C@H](O)[C@@H](O)C(=O)N1CCC(c2ccc3ccccc3c2)CC1` [Compound 52] the “LpxC enzyme assay rating (% inhibition at indicated concentrations)” value was “C (less than 10% inhibition)”.
For `CN(C)C(=O)[C@H](O)[C@@H](O)C(=O)Nc1ccc(Oc2ccccc2)cc1` [Compound 53], the “LpxC enzyme assay rating (% inhibition at indicated concentrations)” value was “C (less than 10% inhibition)”.
With `CN(C)C(=O)[C@H](O)[C@@H](O)C(=O)Nc1ccc(N2CCOCC2)cc1` [Compound 54] the “LpxC enzyme assay rating (% inhibition at indicated concentrations)” value was “C (less than 10% inhibition)”.

Same assay, conditions: concentration 0.20 (unit not given)
With `CCC(C)c1ccc(NC(=O)[C@H](O)[C@@H](O)C(=O)N(C)C)cc1` (some centres unmarked) [Compound 50] the “LpxC enzyme assay rating (% inhibition at indicated concentrations)” value was “C (less than 10% inhibition)”.
With `CN(C)C(=O)[C@H](O)[C@@H](O)C(=O)N1CCC(c2ccc(C(F)(F)F)cc2)CC1` [Compound 51] the “LpxC enzyme assay rating (% inhibition at indicated concentrations)” value was “C (less than 10% inhibition)”.
For `CN(C)C(=O)[C@H](O)[C@@H](O)C(=O)N1CCC(c2ccc3ccccc3c2)CC1` [Compound 52], the “LpxC enzyme assay rating (% inhibition at indicated concentrations)” value was “C (less than 10% inhibition)”.
In the case of `CN(C)C(=O)[C@H](O)[C@@H](O)C(=O)Nc1ccc(Oc2ccccc2)cc1` [Compound 53], the “LpxC enzyme assay rating (% inhibition at indicated concentrations)” value is reported as “C (less than 10% inhibition)”.
In the case of `CN(C)C(=O)[C@H](O)[C@@H](O)C(=O)Nc1ccc(N2CCOCC2)cc1` [Compound 54], the “LpxC enzyme assay rating (% inhibition at indicated concentrations)” value is reported as “C (less than 10% inhibition)”.

Same assay, conditions: concentration 0.39 (unit not given)
For `CCC(C)c1ccc(NC(=O)[C@H](O)[C@@H](O)C(=O)N(C)C)cc1` (some centres unmarked) [Compound 50], the “LpxC enzyme assay rating (% inhibition at indicated concentrations)” value was “C (less than 10% inhibition)”.
In the case of `CN(C)C(=O)[C@H](O)[C@@H](O)C(=O)N1CCC(c2ccc(C(F)(F)F)cc2)CC1` [Compound 51], the “LpxC enzyme assay rating (% inhibition at indicated concentrations)” value is reported as “C (less than 10% inhibition)”.
In the case of `CN(C)C(=O)[C@H](O)[C@@H](O)C(=O)N1CCC(c2ccc3ccccc3c2)CC1` [Compound 52], the “LpxC enzyme assay rating (% inhibition at indicated concentrations)” value is reported as “C (less than 10% inhibition)”.
With `CN(C)C(=O)[C@H](O)[C@@H](O)C(=O)Nc1ccc(Oc2ccccc2)cc1` [Compound 53] the “LpxC enzyme assay rating (% inhibition at indicated concentrations)” value was “C (less than 10% inhibition)”.
In the case of `CN(C)C(=O)[C@H](O)[C@@H](O)C(=O)Nc1ccc(N2CCOCC2)cc1` [Compound 54], the “LpxC enzyme assay rating (% inhibition at indicated concentrations)” value is reported as “C (less than 10% inhibition)”.

Same assay, conditions: concentration 0.78 (unit not given)
`CCC(C)c1ccc(NC(=O)[C@H](O)[C@@H](O)C(=O)N(C)C)cc1` (some centres unmarked) [Compound 50] was tested, and the “LpxC enzyme assay rating (% inhibition at indicated concentrations)” value was “B (10-30% inhibition)”.
`CN(C)C(=O)[C@H](O)[C@@H](O)C(=O)N1CCC(c2ccc(C(F)(F)F)cc2)CC1` [Compound 51] was tested, and the “LpxC enzyme assay rating (% inhibition at indicated concentrations)” value was “C (less than 10% inhibition)”.
For `CN(C)C(=O)[C@H](O)[C@@H](O)C(=O)N1CCC(c2ccc3ccccc3c2)CC1` [Compound 52], the “LpxC enzyme assay rating (% inhibition at indicated concentrations)” value was “C (less than 10% inhibition)”.
With `CN(C)C(=O)[C@H](O)[C@@H](O)C(=O)Nc1ccc(Oc2ccccc2)cc1` [Compound 53] the “LpxC enzyme assay rating (% inhibition at indicated concentrations)” value was “B (10-30% inhibition)”.
With `CN(C)C(=O)[C@H](O)[C@@H](O)C(=O)Nc1ccc(N2CCOCC2)cc1` [Compound 54] the “LpxC enzyme assay rating (% inhibition at indicated concentrations)” value was “C (less than 10% inhibition)”.

Same assay, conditions: concentration 1.56 (unit not given)
`CCC(C)c1ccc(NC(=O)[C@H](O)[C@@H](O)C(=O)N(C)C)cc1` (some centres unmarked) [Compound 50] was tested, and the “LpxC enzyme assay rating (% inhibition at indicated concentrations)” value was “C (less than 10% inhibition)”.
`CN(C)C(=O)[C@H](O)[C@@H](O)C(=O)N1CCC(c2ccc(C(F)(F)F)cc2)CC1` [Compound 51] was tested, and the “LpxC enzyme assay rating (% inhibition at indicated concentrations)” value was “B (10-30% inhibition)”.
With `CN(C)C(=O)[C@H](O)[C@@H](O)C(=O)N1CCC(c2ccc3ccccc3c2)CC1` [Compound 52] the “LpxC enzyme assay rating (% inhibition at indicated concentrations)” value was “C (less than 10% inhibition)”.
With `CN(C)C(=O)[C@H](O)[C@@H](O)C(=O)Nc1ccc(Oc2ccccc2)cc1` [Compound 53] the “LpxC enzyme assay rating (% inhibition at indicated concentrations)” value was “C (less than 10% inhibition)”.
With `CN(C)C(=O)[C@H](O)[C@@H](O)C(=O)Nc1ccc(N2CCOCC2)cc1` [Compound 54] the “LpxC enzyme assay rating (% inhibition at indicated concentrations)” value was “C (less than 10% inhibition)”.

Same assay, conditions: concentration 3.13 (unit not given)
In the case of `CCC(C)c1ccc(NC(=O)[C@H](O)[C@@H](O)C(=O)N(C)C)cc1` (some centres unmarked) [Compound 50], the “LpxC enzyme assay rating (% inhibition at indicated concentrations)” value is reported as “C (less than 10% inhibition)”.
`CN(C)C(=O)[C@H](O)[C@@H](O)C(=O)N1CCC(c2ccc(C(F)(F)F)cc2)CC1` [Compound 51] was tested, and the “LpxC enzyme assay rating (% inhibition at indicated concentrations)” value was “C (less than 10% inhibition)”.
For `CN(C)C(=O)[C@H](O)[C@@H](O)C(=O)N1CCC(c2ccc3ccccc3c2)CC1` [Compound 52], the “LpxC enzyme assay rating (% inhibition at indicated concentrations)” value was “C (less than 10% inhibition)”.
With `CN(C)C(=O)[C@H](O)[C@@H](O)C(=O)Nc1ccc(Oc2ccccc2)cc1` [Compound 53] the “LpxC enzyme assay rating (% inhibition at indicated concentrations)” value was “C (less than 10% inhibition)”.
`CN(C)C(=O)[C@H](O)[C@@H](O)C(=O)Nc1ccc(N2CCOCC2)cc1` [Compound 54] was tested, and the “LpxC enzyme assay rating (% inhibition at indicated concentrations)” value was “B (10-30% inhibition)”.

Same assay, conditions: concentration 6.25 (unit not given)
`CCC(C)c1ccc(NC(=O)[C@H](O)[C@@H](O)C(=O)N(C)C)cc1` (some centres unmarked) [Compound 50] was tested, and the “LpxC enzyme assay rating (% inhibition at indicated concentrations)” value was “B (10-30% inhibition)”.
`CN(C)C(=O)[C@H](O)[C@@H](O)C(=O)N1CCC(c2ccc(C(F)(F)F)cc2)CC1` [Compound 51] was tested, and the “LpxC enzyme assay rating (% inhibition at indicated concentrations)” value was “C (less than 10% inhibition)”.
`CN(C)C(=O)[C@H](O)[C@@H](O)C(=O)N1CCC(c2ccc3ccccc3c2)CC1` [Compound 52] was tested, and the “LpxC enzyme assay rating (% inhibition at indicated concentrations)” value was “B (10-30% inhibition)”.
For `CN(C)C(=O)[C@H](O)[C@@H](O)C(=O)Nc1ccc(Oc2ccccc2)cc1` [Compound 53], the “LpxC enzyme assay rating (% inhibition at indicated concentrations)” value was “C (less than 10% inhibition)”.
For `CN(C)C(=O)[C@H](O)[C@@H](O)C(=O)Nc1ccc(N2CCOCC2)cc1` [Compound 54], the “LpxC enzyme assay rating (% inhibition at indicated concentrations)” value was “C (less than 10% inhibition)”.

Same assay, conditions: concentration 12.50 (unit not given)
For `CCC(C)c1ccc(NC(=O)[C@H](O)[C@@H](O)C(=O)N(C)C)cc1` (some centres unmarked) [Compound 50], the “LpxC enzyme assay rating (% inhibition at indicated concentrations)” value was “B (10-30% inhibition)”.
`CN(C)C(=O)[C@H](O)[C@@H](O)C(=O)N1CCC(c2ccc(C(F)(F)F)cc2)CC1` [Compound 51] was tested, and the “LpxC enzyme assay rating (% inhibition at indicated concentrations)” value was “C (less than 10% inhibition)”.
`CN(C)C(=O)[C@H](O)[C@@H](O)C(=O)N1CCC(c2ccc3ccccc3c2)CC1` [Compound 52] was tested, and the “LpxC enzyme assay rating (% inhibition at indicated concentrations)” value was “B (10-30% inhibition)”.
With `CN(C)C(=O)[C@H](O)[C@@H](O)C(=O)Nc1ccc(Oc2ccccc2)cc1` [Compound 53] the “LpxC enzyme assay rating (% inhibition at indicated concentrations)” value was “C (less than 10% inhibition)”.
`CN(C)C(=O)[C@H](O)[C@@H](O)C(=O)Nc1ccc(N2CCOCC2)cc1` [Compound 54] was tested, and the “LpxC enzyme assay rating (% inhibition at indicated concentrations)” value was “C (less than 10% inhibition)”.

Same assay, conditions: concentration 25 (unit not given)
With `CCC(C)c1ccc(NC(=O)[C@H](O)[C@@H](O)C(=O)N(C)C)cc1` (some centres unmarked) [Compound 50] the “LpxC enzyme assay rating (% inhibition at indicated concentrations)” value was “C (less than 10% inhibition)”.
For `CN(C)C(=O)[C@H](O)[C@@H](O)C(=O)N1CCC(c2ccc(C(F)(F)F)cc2)CC1` [Compound 51], the “LpxC enzyme assay rating (% inhibition at indicated concentrations)” value was “B (10-30% inhibition)”.
For `CN(C)C(=O)[C@H](O)[C@@H](O)C(=O)N1CCC(c2ccc3ccccc3c2)CC1` [Compound 52], the “LpxC enzyme assay rating (% inhibition at indicated concentrations)” value was “B (10-30% inhibition)”.
With `CN(C)C(=O)[C@H](O)[C@@H](O)C(=O)Nc1ccc(Oc2ccccc2)cc1` [Compound 53] the “LpxC enzyme assay rating (% inhibition at indicated concentrations)” value was “C (less than 10% inhibition)”.
In the case of `CN(C)C(=O)[C@H](O)[C@@H](O)C(=O)Nc1ccc(N2CCOCC2)cc1` [Compound 54], the “LpxC enzyme assay rating (% inhibition at indicated concentrations)” value is reported as “C (less than 10% inhibition)”.

Same assay, conditions: concentration 50 (unit not given)
In the case of `CCC(C)c1ccc(NC(=O)[C@H](O)[C@@H](O)C(=O)N(C)C)cc1` (some centres unmarked) [Compound 50], the “LpxC enzyme assay rating (% inhibition at indicated concentrations)” value is reported as “B (10-30% inhibition)”.
In the case of `CN(C)C(=O)[C@H](O)[C@@H](O)C(=O)N1CCC(c2ccc(C(F)(F)F)cc2)CC1` [Compound 51], the “LpxC enzyme assay rating (% inhibition at indicated concentrations)” value is reported as “B (10-30% inhibition)”.
For `CN(C)C(=O)[C@H](O)[C@@H](O)C(=O)N1CCC(c2ccc3ccccc3c2)CC1` [Compound 52], the “LpxC enzyme assay rating (% inhibition at indicated concentrations)” value was “A (greater than 30% inhibition)”.
`CN(C)C(=O)[C@H](O)[C@@H](O)C(=O)Nc1ccc(Oc2ccccc2)cc1` [Compound 53] was tested, and the “LpxC enzyme assay rating (% inhibition at indicated concentrations)” value was “C (less than 10% inhibition)”.
`CN(C)C(=O)[C@H](O)[C@@H](O)C(=O)Nc1ccc(N2CCOCC2)cc1` [Compound 54] was tested, and the “LpxC enzyme assay rating (% inhibition at indicated concentrations)” value was “C (less than 10% inhibition)”.

Source: patent US7553864B2, “Compounds for the treatment of inflammatory disorders and microbial diseases” (Schering Corporation, priority 2005, dated 2009)
